Test results published in patent publication US20090118372A1, “Inhibitors Of Biotin Protein Ligase” (Adelaide Research & Innovation Pty Ltd., priority 2004, published 2009).

Columns and labels:
C. albicans BPL = C. albicans BPL (Candida albicans, UniProt A0A1D8PUA1); experiment: biochemical; assay type: biochemical
Experimental: One hundred ng of biotin domain was coated onto each well of Griener Lumitrac 600 White 96-well plates (Stennick Scientific) with >95% of the peptide binding. Coating was performed overnight at 4° C. in 100 uL of Tris Buffered saline (TBS, pH 7.5). The sample was removed and wells blocked in 150 ul of a 1% BSA solution in TBS for 1 hr at 37° C. The blocking buffer was removed and wells washed five times in TBS buffer containing 0.1% Tween-20. Into each well 85 ul of the BPL reaction mix was added. The reaction for both C. albicans and human BPL are performed in 50 mM Tris-HCl pH 8.0, 100 uM ATP, 5.5 mM MgCl2, 0.1 mg/ml BSA, 10 uM biotin, 0.1 uM dithiothreitol.
Ten ul of either buffer alone or buffer containing inhibitor was added to the reaction mix and pre-equilibrated at 37° C. for 5 minutes. BPL reactions are initiated by the addition of 5 ul enzyme to a final concentration of 3.4 nM (1-5 nM). The reaction is allowed to proceed at 37° C. for 15 minutes at which point it is terminated by the addition of 5 ul 0.5 M EDTA (final concentration 25 mM). The reaction mix was discarded and wells washed five times in TBS-TD (TBS, 0.1% Tween-20 and 100 uM diethylenetriaminepentaacetic acid (DPTA)). The quantitative analysis of biotinylated protein formed in the reaction and coupled onto the well surface was determined using time resolved fluorescence. Fifty ul of Europium labelled streptavidin (Perkin-Elmer) solution, diluted to 0.1 ug/ml in TBS-TD, was added to each well. The plates were incubated at 37° C. for 1 hr before being washed five times in TBS-TD then three times in water. Fifty ul of DELFIA Enhancement solution (Perkin Elmer) was added and incubated for ten minutes at room temperature before quantitation. Quantitation was performed using a FLUOstar Galaxy plate reader (BMG Labtechnologies).
Each compound in the screening library was dissolved in 100% DMSO, added to the reactions to a final concentration of 10 μM or 50 μM and their effect on BPL activity measured. […] The inhibitory activity of the compounds was determined relative to the negative control reactions containing only DMSO.

human BPL [1] = molecular target: T1, human BPL (Homo sapiens, UniProt P50747); experiment: In vitro biotinylation assay of human BPL (Example 9); assay type: biochemical
T1 construct: Vector pARA(hBPL-His6) was produced by cloning the full-length gene into Nco1/Hind111 treated pARA13; initiator Met (NcoI site) before Ala80 (N); made in house; host or cells: E. coli BL21(DE3)pLys, pET-16b vector
T1 sequence (P50747 80-726 limits assumed): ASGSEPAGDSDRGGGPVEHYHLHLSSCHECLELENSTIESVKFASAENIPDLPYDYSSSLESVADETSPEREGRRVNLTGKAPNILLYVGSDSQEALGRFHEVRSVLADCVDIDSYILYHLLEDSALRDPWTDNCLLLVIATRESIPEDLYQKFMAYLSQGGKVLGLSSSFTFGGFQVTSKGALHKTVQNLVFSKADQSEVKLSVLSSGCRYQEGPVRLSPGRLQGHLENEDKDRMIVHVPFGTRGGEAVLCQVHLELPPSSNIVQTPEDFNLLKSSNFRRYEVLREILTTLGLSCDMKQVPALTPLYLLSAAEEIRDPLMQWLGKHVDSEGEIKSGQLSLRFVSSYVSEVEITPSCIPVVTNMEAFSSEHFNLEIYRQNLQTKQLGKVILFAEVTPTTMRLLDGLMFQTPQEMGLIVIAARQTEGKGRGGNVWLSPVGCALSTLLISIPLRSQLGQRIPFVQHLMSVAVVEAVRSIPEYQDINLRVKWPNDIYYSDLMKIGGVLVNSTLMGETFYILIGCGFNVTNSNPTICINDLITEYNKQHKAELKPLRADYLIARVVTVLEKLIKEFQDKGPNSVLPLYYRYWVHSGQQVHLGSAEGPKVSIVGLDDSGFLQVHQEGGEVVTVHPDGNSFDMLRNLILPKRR
Experimental: (§1) One hundred ng of biotin domain was coated onto each well of Griener Lumitrac 600 White 96-well plates (Stennick Scientific) with >95% of the peptide binding. Coating was performed overnight at 4° C. in 100 uL of Tris Buffered saline (TBS, pH 7.5). The sample was removed and wells blocked in 150 ul of a 1% BSA solution in TBS for 1 hr at 37° C. The blocking buffer was removed and wells washed five times in TBS buffer containing 0.1% Tween-20. Into each well 85 ul of the BPL reaction mix was added. The reaction for both C. albicans and human BPL are performed in 50 mM Tris-HCl pH 8.0, 100 uM ATP, 5.5 mM MgCl2, 0.1 mg/ml BSA, 10 uM biotin, […].
Ten ul of either buffer alone or buffer containing inhibitor was added to the reaction mix and pre-equilibrated at 37° C. for 5 minutes. […] The quantitative analysis of biotinylated protein formed in the reaction and coupled onto the well surface was determined using time resolved fluorescence. […] Fifty ul of DELFIA Enhancement solution (Perkin Elmer) was added and incubated for ten minutes at room temperature before quantitation. Quantitation was performed using a FLUOstar Galaxy plate reader (BMG Labtechnologies). […]
(§2) The activity of BPL from Escherichia coli, Staphylococcus aureus, Saccharomyces cerevisiae and Homo sapiens was measured using an in vitro biotinylation assay in the presence of increasing concentrations of Compounds 2 to 5.

Staphylococcus aureus = experiment: Antibiotic activity against Staphylococcus aureus on solid media and in liquid culture; assay type: cell-based; details: L-agar, filter disc soaked in 100 μM, overnight 37° C.
Experimental: The antibacterial properties of Compound 2 were assessed against Staphylococcus aureus grown on both solid media (A-C) and in liquid culture (D). Log phase culture was plated onto L-agar and filter discs soaked in A) DMSO (vehicle control), B) 100 μM ampicillin or C) 100 μM compound #2. A single filter was placed in the centre of a bacterial plate before being placed at 37° C. overnight. The clear zone surrounding the disc in B & C represents sensitivity of S. aureus to the treatment. D) This sensitivity was quantitated in liquid culture by seeding 10^4 cells in a 96 well plate followed by overnight growth at 37° C. The growth of the culture was measured by absorbance at 600 nm.

[2] = molecular target: T2, Saccharomyces cerevisiae BPL (Saccharomyces cerevisiae, UniProt P48445); experiment: In vitro biotinylation assay of S. cerevisiae BPL; assay type: biochemical
T2 sequence (P48445 1-690): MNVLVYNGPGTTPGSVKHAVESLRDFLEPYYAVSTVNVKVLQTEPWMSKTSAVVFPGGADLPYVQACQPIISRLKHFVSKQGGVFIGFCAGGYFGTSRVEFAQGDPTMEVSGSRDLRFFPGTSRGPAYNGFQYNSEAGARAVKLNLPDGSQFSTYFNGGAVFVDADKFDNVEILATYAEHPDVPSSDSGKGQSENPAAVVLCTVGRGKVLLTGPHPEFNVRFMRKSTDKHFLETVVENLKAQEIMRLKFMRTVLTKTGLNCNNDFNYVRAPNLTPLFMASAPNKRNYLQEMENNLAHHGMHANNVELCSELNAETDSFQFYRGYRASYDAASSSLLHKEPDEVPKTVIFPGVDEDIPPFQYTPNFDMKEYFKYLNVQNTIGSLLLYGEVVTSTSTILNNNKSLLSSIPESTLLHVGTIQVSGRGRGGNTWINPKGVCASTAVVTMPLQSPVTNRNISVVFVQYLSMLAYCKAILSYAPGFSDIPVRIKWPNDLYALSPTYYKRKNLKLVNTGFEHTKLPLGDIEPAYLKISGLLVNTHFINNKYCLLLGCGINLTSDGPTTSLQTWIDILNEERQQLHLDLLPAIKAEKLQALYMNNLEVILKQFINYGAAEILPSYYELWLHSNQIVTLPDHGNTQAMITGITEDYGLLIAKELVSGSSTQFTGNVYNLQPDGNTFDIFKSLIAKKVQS
Experimental: as §1
Ten ul of either buffer alone or buffer containing inhibitor was added to the reaction mix and pre-equilibrated at 37° C. for 5 minutes. […] The quantitative analysis of biotinylated protein formed in the reaction and coupled onto the well surface was determined using time resolved fluorescence. […] Fifty ul of DELFIA Enhancement solution (Perkin Elmer) was added and incubated for ten minutes at room temperature before quantitation. Quantitation was performed using a FLUOstar Galaxy plate reader (BMG Labtechnologies).
as §2

Escherichia coli BPL = molecular target: T3, Escherichia coli BPL (Escherichia coli, UniProt P06709); experiment: In vitro biotinylation assay of E. coli BPL; assay type: biochemical
T3 construct: the plasmid pHBA, which contains the entire coding region for E. coli BirA; made in house; host or cells: E. coli BL21(DE3), plasmid pHBA (pET-16b)
Experimental: (§3) Purified hPC-108 was analysed in an in vitro biotinylation assay using recombinant human BPL as follows: BPL activity was assayed by measuring the incorporation of [^3H]biotin into biotin domain. The reactions contained 50 mM Tris-HCl, pH 8.0, 3 mM ATP, 5.5 mM MgCl2, 50 mM KCl, 5 uM biotin, 5 pmol [^3H]biotin (specific activity 35-44 Ci/mmol) 0.1 mM dithiothreitol, 0.1 mg/ml BSA and varying concentrations of hPC-108. The reaction was initiated by addition of purified […] BPL to a final concentration of 13 nM and incubated at 37° C. for up to 30 minutes when aliquots of the reaction were spotted onto biotin- and trichloroacetic acid-treated filters. After air-drying, the filters were washed twice in 10% ice cold trichloroacetic acid and once in ethanol, dried and the acid insoluble radioactivity measured. Values for Km and Vmax were determined by fitting a plot of substrate concentration against rate to the Michaelis-Menten equation using GraphPad Prism for MacIntosh (GraphPad Software Inc, San Diego, Calif.).
as §2

[3] = molecular target: T4, Staphylococcus aureus BPL (UniProt A0A3A5LBF0); experiment: In vitro biotinylation assay of S. aureus BPL; assay type: biochemical
T4 sequence (A0A3A5LBF0 1-323): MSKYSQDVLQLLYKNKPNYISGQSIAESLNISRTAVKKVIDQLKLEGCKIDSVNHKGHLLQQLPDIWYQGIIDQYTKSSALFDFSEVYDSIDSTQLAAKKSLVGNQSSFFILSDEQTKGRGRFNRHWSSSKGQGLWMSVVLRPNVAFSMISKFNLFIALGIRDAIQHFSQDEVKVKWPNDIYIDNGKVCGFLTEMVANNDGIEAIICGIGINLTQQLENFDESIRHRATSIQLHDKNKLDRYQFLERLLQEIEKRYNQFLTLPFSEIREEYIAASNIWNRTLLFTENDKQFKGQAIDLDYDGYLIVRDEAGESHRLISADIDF
Experimental: as §3, §2

[4] = system: T5, hPC-108, biotin domain of human pyruvate carboxylase (C-terminal 108 amino acids), cleaved from GST
T5 sequence: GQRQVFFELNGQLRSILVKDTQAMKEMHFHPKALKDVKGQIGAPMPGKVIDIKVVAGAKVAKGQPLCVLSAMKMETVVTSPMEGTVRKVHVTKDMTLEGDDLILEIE

human BPL [5] = molecular target: T1, human BPL; experiment: Kinetic analysis of biotinylation of hPC-108, [3H]biotin incorporation assay; assay type: biochemical; details: varying concentrations of hPC-108; read-out: KM of human BPL for the biotin domain
Experimental: as §3

C. albicans BPL, sequence (A0A1D8PUA1 entry or part of it): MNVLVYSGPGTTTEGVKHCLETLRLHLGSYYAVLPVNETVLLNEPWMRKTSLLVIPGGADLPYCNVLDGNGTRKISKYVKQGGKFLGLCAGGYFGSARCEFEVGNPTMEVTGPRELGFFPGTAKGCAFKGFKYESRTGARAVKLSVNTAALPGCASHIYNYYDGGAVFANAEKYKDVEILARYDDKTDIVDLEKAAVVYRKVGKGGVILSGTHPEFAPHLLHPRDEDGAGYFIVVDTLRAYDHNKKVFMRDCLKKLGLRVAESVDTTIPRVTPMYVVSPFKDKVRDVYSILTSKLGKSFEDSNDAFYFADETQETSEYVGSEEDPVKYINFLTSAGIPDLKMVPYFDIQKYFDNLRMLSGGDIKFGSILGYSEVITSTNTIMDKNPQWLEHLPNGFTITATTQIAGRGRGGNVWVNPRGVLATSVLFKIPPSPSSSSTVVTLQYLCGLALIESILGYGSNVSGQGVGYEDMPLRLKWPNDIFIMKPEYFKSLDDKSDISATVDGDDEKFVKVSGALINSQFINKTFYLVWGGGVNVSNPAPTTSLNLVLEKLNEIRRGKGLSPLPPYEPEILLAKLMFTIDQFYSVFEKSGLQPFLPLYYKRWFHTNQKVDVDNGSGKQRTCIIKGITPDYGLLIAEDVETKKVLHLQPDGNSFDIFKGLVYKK
T3 sequence (P06709 whole entry): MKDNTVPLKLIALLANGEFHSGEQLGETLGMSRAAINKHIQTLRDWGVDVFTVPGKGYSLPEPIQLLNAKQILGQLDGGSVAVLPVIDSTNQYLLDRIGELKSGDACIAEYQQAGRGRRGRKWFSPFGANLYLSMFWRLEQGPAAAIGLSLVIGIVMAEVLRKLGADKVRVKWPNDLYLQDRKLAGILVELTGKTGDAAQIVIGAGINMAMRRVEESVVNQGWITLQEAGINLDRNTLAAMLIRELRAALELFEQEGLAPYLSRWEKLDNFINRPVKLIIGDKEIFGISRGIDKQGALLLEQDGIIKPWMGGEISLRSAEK

With `Nc1ncnc2c1ncn2C1OC(COP(=O)(O)OCCCCCC2SCC3NC(=O)NC32)C(O)C1O` (stereo not drawn) [BtnOH-AMP, biotinol-adenylate] the “Inhibition of the Candida BPL reaction (in words)” value (C. albicans BPL) was “potent inhibitors”, the IC50 (C. albicans BPL; concentration response curve, read-out: IC50, inhibition of Candida BPL activity) was 1 ± 0.2 µM and the “Inhibition of the human BPL reaction (in words)” value (human BPL [1]) was “inhibitor”.

With `O=P(O)(O)OP(=O)(O)O` [pyrophosphate] the “Inhibition of the Candida BPL reaction (in words)” value (C. albicans BPL) was “potent inhibitors” and the “Inhibition of the Candida BPL reaction by pyrophosphate” value (C. albicans BPL; in the range of 50 uM to 1 mM) was “strongly inhibited”.

`CC1(C)S[C@@H]2[C@H](NC(=O)[C@H](N)c3ccccc3)C(=O)N2[C@H]1C(=O)O` [ampicillin] was tested, and the “Sensitivity of S. aureus on solid media (filter disc)” value (Staphylococcus aureus) was “clear zone”.

Molecule `C=CCC(Cc1cc(OC)cc(OC)c1)(C(=O)O)C(=O)O` [Compound 4, 2-allyl-2-(3,5-dimethoxybenzyl)malonic acid] has an IC50 [2] greater than 50 µM, an IC50 (human BPL [1]) greater than 50 µM and an IC50 (Escherichia coli BPL) of 0.0009 µM. It also gave an IC50 [3] of 2.7 µM.

With “recombinant human biotin protein ligase [Met1-Ala80]hBPL-His6” the “KM (in vitro [3H]biotin incorporation assay, Michaelis-Menten fit)” value [4] was 1.0 ± 0.2 µM.

B1: hPC-108: polypeptide of the C-terminal 108 amino acids (biotin domain) of human pyruvate carboxylase, BPL substrate (protein)
chain: T5 sequence
Work on B1 yielded a Km (human BPL [5]) of 1 ± 0.2 µM.
